Source: PMC11005685, “Identification of Potent siRNA Delivery Peptides Using Computer Modeling” (Advanced Science, 2024)

Assays:
mouse lung cells = assay: scRNA-seq of lung after vector injection; assay type: in vivo
Procedure: (§1) Freshly tissues were washed in Hanks’ balanced salt solution, and cut into small pieces on ice, then digested with collagenase I and IV. After incubated for 30 min at 37°C with continuous shaking. The shredded tissues were filtered the 70 µm nylon mesh, and the obtained cells were centrifuged at 4°C. Red blood lysis buffer added in pelleted cells and shaked up and down 10 times, and then washed three times, finally resuspended in buffer (added 0.04% BSA in PBS). After removing dead cells in suspensions by flow cytometry, the process of single‐cell RNA‐seq following the standard instructions.
(§2) The generation of raw counts matrices was accomplished using CellRanger software, version 6.0.0, referencing the GRCm38 mouse genome. To attain a data set purified of doublets, the Scrublet software was employed. Subsequently, the filtered counts matrices underwent loading into the R software (version 4.0.3), facilitated by the Seurat package. Cells were meticulously curated to exclude those expressing either an excessive (>7000) or an insufficient (<200) number of genes, or presenting high mitochondrial counts (>20%). The raw data were then subjected to normalization using the LogNormalize method. The selection of the top 2000 highly variable genes was carried out with Seurat's FindVariableFeatures function, applying the vst method as the basis for further analysis. To harmonize the batch effects, the IntegrateData function in Seurat was employed. Dimensionality reduction was realized through Principal Component Analysis (PCA), with the leading 30 principal components (PCs) forming the basis for Uniform Manifold Approximation and Projection (UMAP) performance. Cluster identification ensued using Seurat's FindClusters function, setting the resolution at 0.5. Marker gene elucidation was achieved using the differential expression analysis through the Wilcox rank‐sum test, as implemented in the FindAllMarkers function (fold change≥2 and adjusted P≤0.05). Cell clusters underwent annotation against known cell type markers to ascertain their identity. Akin analyses focusing on subclusters of Kupffer cells and Neutrophils were conducted applying a similar methodological framework. Recognition of differentially expressed genes between two groups was facilitated by the Wilcox rank‐sum test via Seurat's FindMarkers function (fold change≥2 and adjusted P≤0.05). Data visualization was executed utilizing the ggplot2 package within the R software. Functional annotations and pathway enrichment analyses, considering the Gene Ontology (GO), were performed with the clusterProfiler package, deeming terms statistically significant at a P≤0.05.

mouse liver cells = assay: scRNA-seq of liver after vector injection; assay type: in vivo
Procedure: as §1
as §2, with “Akin analyses focusing on subclusters of Kupffer cells and Neutrophils were conducted applying a similar methodological framework. Recognition of differentially expressed genes between two groups was facilitated by the Wilcox rank‐sum test via Seurat's FindMarkers function (fold change≥2 and adjusted P≤0.05). Data visualization was executed utilizing the ggplot2 package within the R software. Functional annotations and pathway enrichment analyses, considering the Gene Ontology (GO), were performed with the clusterProfiler package, deeming terms statistically significant at a P≤0.05.” left out

CCCCCCCC/C=C\CCCCCCCC(=O)OCC(C[N+](C)(C)C)OC(=O)CCCCCCC/C=C\CCCCCCCC (stereo not shown) [DOTAP]
alveolar macrophages distributed in the Sirpa+ cluster (mouse lung cells; lung scRNA-seq subclustering): 73%
differentially expressed genes in lung neutrophils (mouse lung cells; lung, vs untreated, total number of DEGs): 18
differentially expressed genes in alveolar macrophages (mouse lung cells; lung, vs untreated, total number of genes): 12
change in cellular composition of lung (mouse lung cells; vs untreated group): sharp increase in the number of neutrophils and alveolar macrophages and a decrease in the number of immune cells and endothelial cells
differentially expressed genes in Kupffer cells (mouse liver cells; liver, vs untreated (NS), total number of genes): 7
differentially expressed genes in liver neutrophils (mouse liver cells; liver, vs untreated, total number of DEGs): 45
change in cellular composition of liver (mouse liver cells; vs normal control (saline-injected)): sharp increase in the number of neutrophils and a decrease in the number of immune cells
